Read-outs that look alike come from different tables or passages of the source. Values belong to the compound of their own block, whether it stands above or below them.
How the values were obtained:
brain 5-HIAA = experiment: Brain (frontal cortex) 5-HIAA tissue levels in mice after 14 days of treatment; type: in vivo; conditions: for augmentation of the brain 5-HIAA tissue elevation induced by 5-HTP: carbidopa 2, 5 or 10 mg/kg/day added to 5-HTP 200 mg/kg/day, more pronounced in 5-HTHypo mice
Excerpt: (§1) Mice: Adult mice were used, both wildtype (WT) mice with normal 5-HT levels and ‘5-HTHypo’ mice with reduced brain 5-HT synthesis and levels (Beaulieu et al, 2008). The 5-HTHypo mice are a naturalistic model of brain 5-HT deficiency, which is known to be a pathogenic factor in several CNS disorders, e.g. depression and suicide.
(§2) Drug treatments: Carbidopa was used as a PDI. To model oral drug delivery occurring in humans during a therapeutic scenario, 5-HTP and carbidopa was delivered via the mouse food (standard chow). This approach distributed the drug delivery over time, imparting a measure of ‘slow-release’ (aka sustained-, extended-, time-, controlled-release) delivery. 5-HTP was administered in a dose of 200 mg/kg/day. Carbidopa was administered in doses of 2, 5 or 10 mg/kg/day in addition to 5-HTP, to assess the effect of carbidopa on the outcomes of 5-HTP treatment. To assess the effect of carbidopa alone, groups of mice were also administered carbidopa 10 mg/kg/day, the highest carbidopa dose, without concomitant 5-HTP. Comparisons were made to untreated mice. Duration of all treatments was 14 days, which is considered chronic in mouse experiments.
(§3) Sample collection: During treatments blood samples were collected to assess plasma levels of 5-HTP and carbidopa. At end of treatments mice were euthanized and brain tissues (frontal cortex) were collected.
(§4) Quantitative analysis: Levels of plasma 5-HTP, plasma carbidopa, brain 5-HT, and brain 5-hydroxyindoleacetic acid (5-HIAA, major 5-HT metabolite) were quantified using HPLC, as described (Jacobsen et al, 2012b). The limits of detection for 5-HT and 5-HTP in plasma were 1 ng/ml and for carbidopa in plasma 2 ng/ml (FIG. 4C).

[1] = Plasma 5-HTP levels in mice given 5-HTP and/or carbidopa via food for 14 days; type: in vivo; conditions: for augmentation of the 5-HTP plasma elevation induced by 5-HTP: carbidopa 2, 5 or 10 mg/kg/day added to 5-HTP 200 mg/kg/day, similar in WT and 5-HTHypo mice
Excerpt: as §1, §2, §3, §4

brain 5-HT = experiment: Brain (frontal cortex) 5-HT tissue levels in mice after 14 days of treatment; type: in vivo; conditions: for augmentation of the brain 5-HT tissue elevation induced by 5-HTP: carbidopa 2, 5 or 10 mg/kg/day added to 5-HTP 200 mg/kg/day, more pronounced in 5-HTHypo mice
Excerpt: as §1, §2, §3, §4

[2] = cited from earlier work
[3] = animal studies (Shindo et al, 1977); cited from earlier work
[4] = animals; including kidney insufficiency and growth anomalies; cited from earlier work
[5] = system: aromatic amino acid decarboxylase enzyme (AAAD); conditions: after oral administration (Da Prada et al, 1987); cited from earlier work
[6] = cited from earlier work; remark: listed apart in the source
[7] = HPLC electrochemical quantification of carbidopa in mouse plasma; type: in vivo, mice
Description: FIG. 4A-4D. HPLC electrochemical quantification of carbidopa in plasma. FIG. 4A: 10 ng/ml standard in perchloric acid. Carbidopa peak visible at 24 min. FIG. 4B: Plasma extract from mouse not treated with carbidopa. […] Baseline undulations at 24 min is detector noise. FIG. 4C: Plasma extract from a mouse not treated with carbidopa, but the plasma spiked with carbidopa to a concentration of 2 ng/ml prior to extraction. Carbidopa peak visible at 24 min. FIG. 4D: Plasma extract from mouse treated with 10 mg/kg/day carbidopa. […] Baseline undulations at 24 min is detector noise, as indicated.
as §2, §3, §4

[8] = Carbidopa plasma levels in humans at therapeutic doses (literature); type: in vivo; conditions: reported human chronic studies with carbidopa and 5-HTP; extrapolated across references
[9] = 5-HTP 200 mg/kg/day alone via food, 14 days, vs untreated
[10] = steady state, therapeutic scenario
[11] = carbidopa 10 mg/kg/day alone, without 5-HTP, 14 days

levels of plasma 5-HTP ([1]; 5-HTP 200 mg/kg/day alone via food, 14 days, vs untreated, WT and 5-HTHypo mice): elevated
SMILES: N[C@@H](Cc1c[nH]c2ccc(O)cc12)C(=O)O [5-HTP, 5-hydroxytryptophan]
levels of brain 5-HIAA (brain 5-HIAA; [9]): elevated | levels of brain 5-HT (brain 5-HT; [9]): elevated | oral bioavailability ([2]; 5-HTP (Gijsman et al, 2002)): modest | T1/2 (elimination half-life) ([2]; 5-HTP in humans, oral): ~2 h | TMax ([2]; 5-HTP in humans, oral): ~1 h | T1/2 ([2]; immediate-release oral 5-HTP): about 2 hours | TMax ([2]; immediate-release oral 5-HTP): 1 to 2 h | exogenously administered 5-HTP converted to 5-HT during transport over the intestinal wall [3]: more than 50%

SMILES: NC(CO)C(=O)NNCc1ccc(O)c(O)c1O (centres unmarked) [benserazide]
toxicity of chronic PDI treatment without levodopa [4]: significant toxic effects | potency as inhibitor of AAAD in the peripheral organs relative to carbidopa [5]: 10 fold

plasma carbidopa levels ([7]; carbidopa 10 mg/kg/day, the highest dose, limit of detection 2 ng/ml): < 2 ng/mL | carbidopa peak in HPLC of plasma extract (FIG. 4D) ([7]; mouse treated with 10 mg/kg/day carbidopa): No carbidopa peak visible | plasma exposure levels lower than usual systemically active levels ([7]; relative to 25 ng/ml): at least 12 times | enhancing 5-HTP bioavailability and pharmacodynamic (brain 5-HT) effects ([1]; 5-HTP:carbidopa ratios of 20:1 to 100:1): effective | effect on plasma 5-HTP [1, 11]: no effects | augmentation of the 5-HTP plasma elevation induced by 5-HTP [1]: manifold and dose-dependently augmented | augmentation of the 5-HTP plasma elevation induced by 5-HTP ([1]; listed as Carbidopa): dose-dependently augmented | average carbidopa plasma levels [8]: > 25 ng/mL
SMILES: C[C@@](Cc1ccc(O)c(O)c1)(NN)C(=O)O [carbidopa]
usual systemically active plasma levels ([6]; Verhagen et al, 2015, Yeh et al, 1989): 25 ng/mL | average plasma levels of carbidopa at maintenance doses [6, 10]: ≥ 25 ng/mL | range of average plasma levels of carbidopa at maintenance doses [6, 10]: 25 to 150 ng/mL | effect on brain 5-HIAA (brain 5-HIAA; [11]): no effects | augmentation of the brain 5-HIAA tissue elevation induced by 5-HTP (brain 5-HIAA): manifold and dose-dependently augmented | augmentation of the brain 5-HIAA tissue elevation induced by 5-HTP (brain 5-HIAA; listed as Carbidopa): dose-dependently augmented | effect on brain 5-HT (brain 5-HT; [11]): no effects | augmentation of the brain 5-HT tissue elevation induced by 5-HTP (brain 5-HT): manifold and dose-dependently augmented | augmentation of the brain 5-HT tissue elevation induced by 5-HTP (brain 5-HT; listed as Carbidopa): dose-dependently augmented | toxicity of chronic PDI treatment without levodopa [4]: significant toxic effects
